Reference: US20090264402A1, “NOVEL DIPHENYLAZETIDINONE SUBSTITUTED BY PIPERAZINE-1-SULFONIC ACID AND HAVING IMPROVED PHARMACOLOGICAL PROPERTIES” (SANOFI-AVENTIS DEUTSCHLAND GMBH, priority 2006, published 2009)

System: uptake of 14C-cholesterol in the liver
Experiment: Cholesterol absorption test (14C-cholesterol uptake in the liver) in NMRI mice
Type: in vivo
Method: The compound of the invention of the formula I (ammonium salt) was tested for its effect using the method described below:
NMRI mice (in groups of n=4-6) are kept with a standard diet (altromin, lage (lippe)) in metabolism cages. The animals are fasted from the afternoon before administration of the radioactive tracer (^14C-cholesterol) and adapted to wire grids.
In addition, the animals are labeled with ^3H-TCA (taurocholic acid) s.c. 24 hours before the oral administration of the test meal (^14C-cholesterol in Intralipid® 20, Pharmacia-Upjohn) (e.g. 1 μCi/mouse to 5 μCi/rat).
Cholesterol absorption test: 0.25 ml/mouse Intralipid® 20 (Pharmacia-Upjohn) (spiking with 0.25 μCi ^14C-cholesterol in 0.1 mg of cholesterol) is administered orally by gavage.
Test substances are made up separately in 0.5%/(methylcellulose (Sigma)/5% Solutol (BASF, Ludwigshafen) or a suitable vehicle.
The volume for administration of the test substance is 0.5 ml/mouse. The test substance is administered immediately before the test meal (Intralipid with ^14C-cholesterol label) (cholesterol absorption test).
The livers are removed, homogenized and combusted in aliquots in an oximate (model 307, Packard) to determine the amount of ^14C-cholesterol taken up/absorbed.
The amount of ^14C-cholesterol taken up in the liver is related to the dose administered. […]

SMILES | ED50 (liver) (NMRI mice, oral, test substance given immediately before 14C-cholesterol test meal, dose which halves uptake of 14C-cholesterol in the liver relative to control) | activity relative to comparison compound LVIII from WO 2004/000804 (times better) (ratio of ED50 (liver) values)
N.O=C(Oc1ccc([C@@H]2[C@@H](CC[C@H](O)c3ccc(F)cc3)C(=O)N2c2ccc(F)cc2)c(F)c1)N1CCN(S(=O)(=O)O)CC1 [I (ammonium salt), Ammonium 4-(3-fluoro-4-{(2S,3R)-1-(4-fluorophenyl)-3-[(S)-3-(4-fluoro-phenyl)-3-hydroxylpropyl]-4-oxoazetidin-2-yl}phenoxycarbonyl)piperazine-1-sulfonate] | 0.01 mg/mouse | –
O=C(Oc1ccc([C@@H]2[C@@H](CC[C@H](O)c3ccc(F)cc3)C(=O)N2c2ccc(F)cc2)c(F)c1)N1CCN(S(=O)(=O)O)CC1 [I] | – | 10 times
